This passage reports TGI and GI50 results from PubChem BioAssay (NCI).

Test systems include A549 NSCLC; CCRF-CEM leukemia; HOP-62 NSCLC; K-562 leukemia; OVCAR-3 ovarian; SF-539 CNS; SK-OV-3 ovarian; SW-620 colon; TK-10 renal; UACC-62 melanoma.
Holding throughout (assay): NCI-60 cell line screen, 48 h

Where “and” joins values, the source holds several entries; their conditions need not be identical. Equal values may be shown once.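 Method: 48-hour compound exposure of cells in 96-well plates, five concentrations, linear interpolation of endpoints. Here, GI50 denotes the concentration required for 50% inhibition of growth. TGI marks complete inhibition of growth.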

For `Cc1ccc(-c2cc(=O)c3cc(C)c(C)c(C(=O)O)c3o2)cc1C`, the TGI with A549 NSCLC, in the assay on CCRF-CEM leukemia, in the assay on HOP-62 NSCLC, with K-562 leukemia, in the assay with OVCAR-3 ovarian and in the assay with SF-539 CNS was over 100 µM in each case. Besides, the TGI in the assay on SK-OV-3 ovarian, in the assay on SW-620 colon, with TK-10 renal and in the assay with UACC-62 melanoma was over 100 µM throughout.
Take `C=C1C(=O)O[C@H]2[C@H]1CC/C(COC(=O)c1cc3ccccc3s1)=C\CC[C@@]1(C)O[C@@H]21`: the GI50 in the assay on A549 NSCLC was 2040 nM; with CCRF-CEM leukemia it was 403 nM; with HOP-62 NSCLC, 1810 nM; in the assay with K-562 leukemia, 813 nM; in the assay on OVCAR-3 ovarian it was 446 nM; with SF-539 CNS it was 1600 nM. In addition, the GI50 with SK-OV-3 ovarian is 13.9 µM; with SW-620 colon, 518 nM; in the assay on TK-10 renal it was 1550 nM; with UACC-62 melanoma, 1850 nM. The TGI in the assay with A549 NSCLC was 4.4 µM; in the assay with CCRF-CEM leukemia it was 2.45 µM; in the assay with HOP-62 NSCLC, 3.42 µM; in the assay with K-562 leukemia it was 30.5 µM; in the assay on OVCAR-3 ovarian, 1.66 µM; with SF-539 CNS, 3.34 µM. Further, the TGI was 26.8 µM in the assay with SK-OV-3 ovarian, 2.97 µM with SW-620 colon, 2.93 µM with TK-10 renal and 3.79 µM with UACC-62 melanoma.
On to `N#CCc1ccc(C(C#N)/C(CCCC(=O)Nc2cccc([N+](=O)[O-])c2)=N/NC(N)=S)cc1` (stereo not drawn), for which the TGI in the assay with A549 NSCLC, in the assay with CCRF-CEM leukemia, with HOP-62 NSCLC, with K-562 leukemia, in the assay on OVCAR-3 ovarian and in the assay with SF-539 CNS was over 100 µM in each case. Moreover, the TGI in the assay with SK-OV-3 ovarian, in the assay on SW-620 colon, with TK-10 renal and in the assay on UACC-62 melanoma was over 100 µM throughout.
On to `O=c1[nH]c(=O)n(C2OC(CO)C(O)C(O)C2O)cc1F` (stereo not drawn), for which the TGI with A549 NSCLC, in the assay on CCRF-CEM leukemia, in the assay with HOP-62 NSCLC, in the assay on K-562 leukemia, in the assay on OVCAR-3 ovarian and with SF-539 CNS was over 100 µM each time. The TGI in the assay with SK-OV-3 ovarian, with SW-620 colon, in the assay on TK-10 renal and with UACC-62 melanoma was over 100 µM throughout.
For the molecule `CC(=O)N1C/C(=C\c2ccc(N(C)C)cc2)C(=O)/C(=C/c2ccc(N(C)C)cc2)C1`, the TGI is over 100 µM with A549 NSCLC; over 100 µM in the assay with CCRF-CEM leukemia; over 100 µM with HOP-62 NSCLC; over 100 µM in the assay with K-562 leukemia; 56.3 µM in the assay on OVCAR-3 ovarian; 52.2 µM in the assay with SF-539 CNS. Moreover, the TGI with SK-OV-3 ovarian, in the assay on SW-620 colon, in the assay with TK-10 renal and with UACC-62 melanoma was over 100 µM throughout.
On to `Cc1ccc2[nH]c(C(=O)NN3C(=O)C(C)SC34CCCC(C)C4)c(-c3ccccc3)c2c1` (stereo not drawn), for which the GI50 is 30900 nM in the assay on A549 NSCLC; 74100 nM in the assay on CCRF-CEM leukemia; over 100000 nM in the assay on HOP-62 NSCLC; 35100 nM in the assay on K-562 leukemia; 97300 nM with OVCAR-3 ovarian; over 100000 nM in the assay with SF-539 CNS. The GI50 in the assay with SK-OV-3 ovarian is over 100 µM; in the assay on SW-620 colon it was over 100000 nM; in the assay on TK-10 renal, 89400 nM; with UACC-62 melanoma, 76800 nM. The TGI in the assay on A549 NSCLC, in the assay on CCRF-CEM leukemia, in the assay with HOP-62 NSCLC, with K-562 leukemia, in the assay with OVCAR-3 ovarian and in the assay with SF-539 CNS was over 100 µM each time. Further, the TGI in the assay with SK-OV-3 ovarian, in the assay with SW-620 colon, in the assay on TK-10 renal and in the assay with UACC-62 melanoma was over 100 µM throughout.
In the case of `COc1cc2c3c(n(CCNCCCNCCn4c5c(c6cc(OC)c(OC)cc6c4=O)C(=O)c4ccccc4-5)c(=O)c2cc1OC)-c1ccccc1C3=O`, the GI50 in the assay with A549 NSCLC was 187 nM; in the assay with CCRF-CEM leukemia it was under 17.4 nM; in the assay with HOP-62 NSCLC it was 61.4 nM; in the assay on K-562 leukemia, 103 nM; in the assay with OVCAR-3 ovarian, 149 nM; in the assay on SF-539 CNS, 199 nM. Further, the GI50 was 7.02 µM with SK-OV-3 ovarian, 261 nM in the assay on SW-620 colon, 2900 nM in the assay with TK-10 renal and 1200 nM in the assay with UACC-62 melanoma. In addition, the TGI in the assay with A549 NSCLC is 24.2 µM; in the assay on CCRF-CEM leukemia it was 1.63 µM; in the assay on HOP-62 NSCLC, 1.9 µM; with K-562 leukemia it was 1.48 µM; with OVCAR-3 ovarian it was 1.17 µM; in the assay with SF-539 CNS, 15.5 µM. For the same molecule, the TGI in the assay on SK-OV-3 ovarian came to 32.2 µM; in the assay with SW-620 colon, 11.8 µM; with TK-10 renal it was 21.7 µM; with UACC-62 melanoma it was 2.69 µM.
`CC(C)(C)c1cc(NC(=O)Cc2ccc(-c3cnc4cc(-c5cnn(CCN6CCOCC6)c5)ccc4n3)cc2)no1`: the GI50 was 335 nM and 506 nM and 108 nM in the assay with A549 NSCLC; 163 nM and 388 nM and 107 nM in the assay with CCRF-CEM leukemia; 216 nM and 307 nM and 84.8 nM in the assay on K-562 leukemia; 482 nM and 675 nM and 105 nM in the assay with OVCAR-3 ovarian; 87.8 nM and 236 nM and 344 nM with SF-539 CNS; 0.369 µM in the assay on SK-OV-3 ovarian. For the same molecule, the GI50 was 220 nM and 414 nM and 87.8 nM in the assay on SW-620 colon; 260 nM and 364 nM and 55.2 nM in the assay with UACC-62 melanoma. Further, the TGI in the assay with A549 NSCLC was 50 µM and > 100 µM and > 3 µM; with CCRF-CEM leukemia, 22.8 µM and > 100 µM and > 3 µM; in the assay with HOP-62 NSCLC, 50 µM and > 100 µM and > 3 µM; in the assay on K-562 leukemia, 50 µM and > 100 µM and > 3 µM; in the assay on OVCAR-3 ovarian it was 50 µM and > 100 µM and > 3 µM; in the assay on SF-539 CNS, 3.68 µM and 3.05 µM and > 3 µM. Further, the TGI is 2.66 µM with SK-OV-3 ovarian; 9.2 µM and 67.1 µM and > 1.25 µM with SW-620 colon; 50 µM and > 100 µM and > 3 µM in the assay with TK-10 renal; 50 µM and > 100 µM and > 3 µM in the assay on UACC-62 melanoma.
Regarding `CCOC(=O)c1c(C)nc2c(c1N)/C(=C/c1ccc(OC)cc1)C(=O)N2Cc1ccc(F)cc1`, the GI50 was 385 nM with A549 NSCLC; 109 nM in the assay with CCRF-CEM leukemia; 497 nM with HOP-62 NSCLC; 207 nM in the assay with K-562 leukemia; 109 nM in the assay on OVCAR-3 ovarian; 189 nM in the assay on SF-539 CNS. Besides, the GI50 with SK-OV-3 ovarian is 0.692 µM; in the assay with SW-620 colon, 140 nM; with TK-10 renal it was 264 nM; in the assay with UACC-62 melanoma, 160 nM. Further, the TGI with A549 NSCLC is 2.39 µM; in the assay on CCRF-CEM leukemia, 0.514 µM; in the assay with HOP-62 NSCLC, 2.17 µM; in the assay with K-562 leukemia it was 1.01 µM; with OVCAR-3 ovarian, 0.51 µM; in the assay on SF-539 CNS, 0.457 µM. The TGI was found to be 6.85 µM in the assay on SK-OV-3 ovarian, 0.349 µM in the assay on SW-620 colon, 1 µM in the assay on TK-10 renal and 0.317 µM with UACC-62 melanoma.
